Laboratory results: patent US20260265199A1, “CRYSTALLINE FORMS OF (R)-2-AMINO-5-(4-(2-(3,5-DIFLUOROPHENYL)-2-HYDROXYACETAMIDO)-2-METHYLPHENYL)-N-ISOPROPYLNICOTINAMIDE AND METHODS FOR USING THE SAME” (HIBERCELL, INC., priority 2023, published 2026)
Structures can show the parent of a compound that is named as a salt.

Test: Phase 1a study: pharmacokinetics after oral BID dosing in subjects with advanced solid tumors
Format: in vivo, human
Set-up: Increase in mean: scale not given here
Description: This example describes a first in human, Phase 1a, multi-center, open-label study to establish the maximum tolerated dose (MTD) and evaluate the safety and tolerability of oral dosing of Form A of the hemi-fumarate salt of the compound of formula (I) (Example 11) in a dose-escalating fashion. Form A of the hemi-fumarate salt was orally administered BID every day with food or within 30 minutes of completing a meal, starting at 25 mg, with doses escalating to 50, 100, 200, 400, 600, and 900 mg BID as safety allows for each 3-week treatment cycle.
Up to 36 qualified subjects at 3 to 5 US sites, who have specific tumor types of renal cell carcinoma (RCC), gastric cancer (GC), metastatic breast cancer (MBC), small cell lung cancer (SCLC), and other solid tumors (e.g., non-small cell lung cancer, colorectal cancer, carcinoma of unknown primary) with the exception of rapidly progressing neoplasms (e.g., pancreatic cancer, glioblastoma, hepatocellular carcinoma) received Form A of the hemi-fumarate salt. Every effort was made to ensure approximately 50% of all subjects enrolled were subjects with RCC and GC. The starting dose level was 25 mg twice daily (BID), escalating to 50, 100, and 200 mg BID as safety allows, following the Bayesian Optimal Interval (BOIN) design. The safety monitoring committee (SMC) evaluated the dose-limiting toxicities (DLTs) and cumulative safety and PK data at the end of each cohort. Based on the SMC recommendations after a comprehensive review of PK and safety data for 200 mg BID dose, higher dose levels were evaluated, starting with 400 mg BID. The dose escalated to 600 mg and then 900 mg following the BOIN design starting with 1 subject at each escalated dose, until the MTD was reached or the sponsor or SMC declares the dose most appropriate for clinical development. This Phase 1a will be expanded into a Phase 1b/2a study through a protocol amendment and will then assess the dose and tumor type(s) selected in Phase 1a as the most appropriate for further clinical development. Subjects were dosed until unacceptable toxicity, disease progression per immune-related Response Evaluation Criteria in Solid Tumors (iRECIST), subject withdrawal, any other administrative reasons, or after 2 years of treatment, whichever occurs first. Efficacy was assessed via Response Evaluation Criteria in Solid Tumors 1.1 (RECIST 1.1); computed tomography (CT) scans were conducted every 6 weeks. Safety, including occurrence of dose-limiting toxicities (DLTs), pharmacokinetics (PK), and biomarker parameters were also assessed.
Form A of the hemi-fumarate salt was orally administered BID with food or within 30 minutes of completing a meal, starting at 25 mg, with doses escalating to 50, 100, 200, 400, 600 and 900 mg BID as safety allowed. Up to 24 subjects were enrolled to ensure 12 subjects completed the study at the estimated MTD of Form A of the hemi-fumarate salt. Dosing occurred in 3-week cycles. Subjects spent Cycle 1/Day 1 (C1D1) in the clinic followed by an overnight stay for safety monitoring and PK sampling. Subjects were hospitalized for administration of first 3 doses: CID1 am and pm doses, and Cycle 1/Day 2 (C1D2) am dose; on Days 8, 15, and 21 the am dose was taken in the clinic after the planned PK samples. All other doses were self administered at home.
Results of Cohorts 1 to 6 the study are detailed in Tables 47-50 below.

[1] = 25 mg single oral dose, Cycle 1 Day 1, geometric mean, N = 3
[2] = 25 mg twice daily oral, Cycle 1 Day 21, geometric mean, N = 3
[3] = 50 mg single oral dose, Cycle 1 Day 1, geometric mean, N = 3
[4] = 50 mg twice daily oral, Cycle 1 Day 21, geometric mean, N = 3
[5] = 100 mg single oral dose, Cycle 1 Day 1, geometric mean, N = 4
[6] = 100 mg twice daily oral, Cycle 1 Day 21, geometric mean, N = 3
[7] = 200 mg single oral dose, Cycle 1 Day 1, geometric mean, N = 5
[8] = 200 mg twice daily oral, Cycle 1 Day 21, geometric mean, N = 4
[9] = 300 mg single oral dose, Cycle 1 Day 1, geometric mean, N = 4
[10] = 300 mg twice daily oral, Cycle 1 Day 21, point estimate, N = 1
[11] = 400 mg single oral dose, Cycle 1 Day 1, geometric mean, N = 3
[12] = 400 mg twice daily oral, Cycle 1 Day 21, geometric mean, N = 2
[13] = 600 mg single oral dose, Cycle 1 Day 1, point estimate, N = 1
[14] = 600 mg twice daily oral, Cycle 1 Day 21, point estimate, N = 1

For `Cc1cc(NC(=O)[C@H](O)c2cc(F)cc(F)c2)ccc1-c1cnc(N)c(C(=O)NC(C)C)c1` [Form A of the hemi-fumarate salt, (R)-2-amino-5-(4-(2-(3,5-difluorophenyl)-2-hydroxyacetamido)-2-methylphenyl)-N-isopropylnicotinamide], the “% AUCextrap” value [1] was 46.8%, the CL/F [1] was 11.4 L/h and the DAUC0-12 [1] was 34.0 ng·h/mL/mg. The DAUC0-last [1] was 34.0 ng·h/mL/mg, the DCmax [1] was 4.79 ng/mL/mg and the tlast (25 mg single oral dose, Cycle 1 Day 1, median, N = 3) was 12.00 h. It also gave an ARAUC [2] of 4.84, a CL/F [2] of 6.08 L/h and a Ctrough [2] of 359 ng/mL. For the same compound, the DAUC0-last [2] was 164 ng·h/mL/mg, the DAUC0-τ [2] was 164 ng·h/mL/mg and the DCmax [2] was 21.5 ng/mL/mg. For the same compound, the “% AUCextrap” value [3] was 51.8%, the CL/F [3] was 8.85 L/h and the DAUC0-12 [3] was 41.8 ng·h/mL/mg. For the same compound, the DAUC0-last [3] was 41.8 ng·h/mL/mg, the DCmax [3] was 4.87 ng/mL/mg and the tlast (50 mg single oral dose, Cycle 1 Day 1, median, N = 3) was 12.00 h. For the same compound, the ARAUC [4] was 4.34, the CL/F [4] was 5.51 L/h and the Ctrough [4] was 780 ng/mL. The DAUC0-last [4] was 181 ng·h/mL/mg, the DAUC0-τ [4] was 181 ng·h/mL/mg and the DCmax [4] was 19.6 ng/mL/mg. The Increase in mean (50 mg vs preceding dose level (25 mg), single oral dose, Cycle 1 Day 1) was 2.46, the Increase in mean (50 mg vs preceding dose level (25 mg), twice daily oral, Cycle 1 Day 21) was 2.21 and the DAUC0-12 [5] was 28.0 ng·h/mL/mg. For the same compound, the DAUC0-last [5] was 19.3 ng·h/mL/mg, the DCmax [5] was 3.80 ng/mL/mg and the tlast (100 mg single oral dose, Cycle 1 Day 1, median, N = 4) was 12.00 h. For the same compound, the ARAUC [6] was 4.19, the CL/F [6] was 8.53 L/h and the Ctrough [6] was 777 ng/mL. For the same compound, the DAUC0-last [6] was 117 ng·h/mL/mg, the DAUC0-τ [6] was 117 ng·h/mL/mg and the DCmax [6] was 13.1 ng/mL/mg. For the same compound, the Increase in mean (100 mg vs preceding dose level (50 mg), single oral dose, Cycle 1 Day 1) was 1.34, the Increase in mean (100 mg vs preceding dose level (50 mg), twice daily oral, Cycle 1 Day 21) was 1.29 and the “% AUCextrap” value [7] was 58.7%. The CL/F [7] was 11.1 L/h, the DAUC0-12 [7] was 29.0 ng·h/mL/mg and the DAUC0-last [7] was 29.0 ng·h/mL/mg. For the same compound, the DCmax [7] was 4.19 ng/mL/mg, the tlast (200 mg single oral dose, Cycle 1 Day 1, median, N = 5) was 12.00 h and the ARAUC [8] was 4.90. The CL/F [8] was 7.36 L/h, the Ctrough [8] was 1860 ng/mL and the DAUC0-last [8] was 136 ng·h/mL/mg. It also gave a DAUC0-τ [8] of 136 ng·h/mL/mg, a DCmax [8] of 14.9 ng/mL/mg and an Increase in mean (200 mg vs preceding dose level (100 mg), single oral dose, Cycle 1 Day 1) of 2.07. The Increase in mean (200 mg vs preceding dose level (100 mg), twice daily oral, Cycle 1 Day 21) was 2.32, the “% AUCextrap” value [9] was 30.5% and the CL/F [9] was 62.4 L/h. For the same compound, the DAUC0-12 [9] was 28.7 ng·h/mL/mg, the DAUC0-last [9] was 28.7 ng·h/mL/mg and the DCmax [9] was 3.80 ng/mL/mg. For the same compound, the tlast (300 mg single oral dose, Cycle 1 Day 1, median, N = 4) was 12.00 h, the ARAUC [10] was 2.87 and the CL/F [10] was 10.5 L/h. For the same compound, the Ctrough [10] was 1770 ng/mL, the DAUC0-last [10] was 94.8 ng·h/mL/mg and the DAUC0-τ [10] was 94.8 ng·h/mL/mg. The DCmax [10] was 10.1 ng/mL/mg, the Increase in mean (300 mg vs preceding dose level (200 mg), single oral dose, Cycle 1 Day 1) was 1.48 and the Increase in mean (300 mg vs preceding dose level (200 mg), twice daily oral, Cycle 1 Day 21) was 1.05. The “% AUCextrap” value [11] was 33.6%, the CL/F [11] was 24.5 L/h and the DAUC0-12 [11] was 9.58 ng·h/mL/mg. The DAUC0-last [11] was 9.58 ng·h/mL/mg, the DCmax [11] was 1.62 ng/mL/mg and the tlast (400 mg single oral dose, Cycle 1 Day 1, min-max, N = 3) was “(12.00-12.00) h”. It also gave an ARAUC [12] of 5.15, a CL/F [12] of 7.82 L/h and a Ctrough [12] of 3060 ng/mL. For the same compound, the DAUC0-last [12] was 77.0 ng·h/mL/mg, the DAUC0-τ [12] was 128 ng·h/mL/mg and the DCmax [12] was 9.20 ng/mL/mg. The Increase in mean (400 mg vs preceding dose level (300 mg), single oral dose, Cycle 1 Day 1) was 0.44, the Increase in mean (400 mg vs preceding dose level (300 mg), twice daily oral, Cycle 1 Day 21) was 1.80 and the DAUC0-12 [13] was 19.4 ng·h/mL/mg. For the same compound, the DAUC0-last [13] was 19.4 ng·h/mL/mg, the DCmax [13] was 2.43 ng/mL/mg and the tlast [13] was 12.00 h. The ARAUC [14] was 5.22, the CL/F [14] was 9.87 L/h and the Ctrough [14] was 5680 ng/mL. The DAUC0-last [14] was 101 ng·h/mL/mg, the DAUC0-τ [14] was 101 ng·h/mL/mg and the DCmax [14] was 9.98 ng/mL/mg.
